This is an account of results in patent US20210400970A1, “COMPOSITIONS COMPRISING PYRIDINE CARBOXYLATE HERBICIDES AND MICROTUBULE ASSEMBLY INHIBITOR HERBICIDES” (priority 2018, published 2021).

Common to all, as to assay type: in vivo
Common to all, as to conditions: 20-22 d

Assay [1] concerns Viola tricolor (wild pansy, VIOTR). The assay is described as follows: Greenhouse post-emergence herbicidal effect on wild pansy. The procedure:
(§1) Seeds of the desired test plant species were planted in a 90:10% v/v (volume/volume) mixture of PRO-MIX® BX (Premier Tech Horticulture, Quakertown, Pa., USA) and PROFILE® GREENS GRADE™ (Profile Products LLC, Buffalo Grove, Ill., USA) planting mixture, which typically has a pH of 5.2 to 6.2 and an organic matter content of at least 50 percent, in plastic pots with a surface area of 103.2 square centimeters (cm^2). […] The plants were grown for 7-36 days (d) in a greenhouse with an approximate 14-hour (h) photoperiod which was maintained at about 23° C. during the day and 22° C. during the night. Nutrients and water were added on a regular basis and supplemental lighting was provided with overhead metal halide 1000-Watt lamps as necessary. The plants were employed for testing when they reached the second or third true leaf stage.
(§2) Emulsifiable concentrates of each of each pyridine carboxylate herbicide (Compound A or Compound B) were prepared at 100 grams acid equivalent per liter (g ae/L). The emulsifiable concentrates also included a safener, cloquintocet-mexyl, at 120 grams active ingredient per liter (g ai/L). An aliquot of each emulsifiable concentrate was placed in a 25 mL glass vial and diluted with an aqueous mixture of 1.25% (v/v) ACTIROB® B esterified rapeseed oil (Bayer Crop Science, Research Triangle Park, NC, USA) or MSO® Concentrate with LECI-TECH® methylated soybean oil (Loveland Products, Loveland, Colo., USA) to obtain concentrated stock solutions at the highest application rate for each herbicide, based upon a 12 milliliter (mL) application volume at a rate of 187 liters per hectare (L/ha). The concentrated stock solutions were further diluted with an aqueous mixture of 1.25% v/v ACTIROB® B or MSO® Concentrate with LECI-TECH® to obtain stock solutions at reduced application rates for each herbicide. Spray solutions of the herbicide combinations (Compound A or Compound B plus the MAI herbicide) were prepared by adding weighed amounts or aliquots of the MAI herbicide to the stock solutions of Compound A or Compound B to form 12-mL spray solutions in two-way combinations.
(§3) The spray solutions were applied to the plant material with an overhead Mandel track sprayer equipped with 8002E nozzles calibrated to deliver 187 L/ha over an application area of 0.503 square meters (m^2) at a spray height of 18 inches (43 centimeters (cm)) above the average plant canopy. Control plants were sprayed in the same manner with the solvent blank. All pyridine carboxylate herbicide (component a) application rates are given as “g ae/ha” and all MAI herbicide (component b) application rates are given as “g ai/ha.”
(§4) The treated plants and control plants were placed in a greenhouse as described above and watered by sub-irrigation to prevent wash-off of the test compounds. After 20-22 d, the condition of the test plants as compared with that of the control plants was determined visually and scored on a scale of 0 to 100 percent where 0 corresponds to no injury and 100 corresponds to complete kill.

The subject of assay [2] is Chenopodium album L. (common lambsquarters, CHEAL). The assay is described as follows: Greenhouse post-emergence herbicidal effect on common lambsquarters. As for the experimental part: as §1, §2
(§5) The spray solutions were applied to the plant material with an overhead Mandel track sprayer equipped with 8002E nozzles calibrated to deliver 187 L/ha over an application area of 0.503 square meters (m^2) at a spray height of 18 inches (43 centimeters (cm)) above the average plant canopy. […]
as §4

Assay [3] has as its system Lolium multiflorum (Italian ryegrass, LOLMU). In words: Greenhouse post-emergence herbicidal effect on Italian ryegrass. The procedure: as §1, §2, §3, §4
Assay [4] concerns Echinochloa crus-galli (barnyard grass, ECHCG). In words: Greenhouse post-emergence herbicidal effect on barnyard grass. The procedure:
as §1, §2, §3, §4

The subject of assay [5] is Digitaria sanguinalis (large crabgrass, DIGSA). The assay is described as follows: Greenhouse post-emergence herbicidal effect on large crabgrass. As for the experimental part: as §1, §2, §3, §4
For assay [6], the system named is Abutilon theophrasti (velvetleaf, ABUTH). The assay is described as follows: Greenhouse post-emergence herbicidal effect on velvetleaf. The procedure:
as §1, §2, §5, §4

Assay [7] has as its system Cirsium arvense (Canada thistle, CIRAR). In words: Greenhouse post-emergence herbicidal effect on Canada thistle. As for the experimental part: as §1, §2, §3, §4
Assay [8] relates to Brassica napus (spring rape, BRSNN). In words: Greenhouse post-emergence herbicidal effect on spring rape. As for the experimental part:
as §1, §2, §3, §4

Assay [9] relates to Setaria faberi (giant foxtail, SETFA). In words: Greenhouse post-emergence herbicidal effect on giant foxtail. The procedure:
as §1, §2, §3, §4

The subject of assay [10] is Rumex obtusifolius (broad-leaf dock, RUMOB). In words: Greenhouse post-emergence herbicidal effect on broad-leaf dock. The procedure:
as §1, §2, §3, §4

The test system of assay [11] is Glycine max (soybean, GLXMA). The assay is described as follows: Greenhouse post-emergence herbicidal effect on volunteer soybean. As for the experimental part: as §1, §2, §3, §4
The subject of assay [12] is Ipomoea hederacea (ivyleaf morningglory, IPOHE). In words: Greenhouse post-emergence herbicidal effect on ivyleaf morningglory. The procedure: as §1, §2, §3, §4
The test system of assay [13] is Kochia scoparia (kochia, KCHSC). In words: Greenhouse post-emergence herbicidal effect on kochia. The procedure:
as §1, §2, §3, §4

Assay [14] relates to Polygonum convolvulus (wild buckwheat, POLCO). In words: Greenhouse post-emergence herbicidal effect on wild buckwheat. As for the experimental part: as §1, §2, §5, §4
Where [15] appears, read: MAI herbicide alone, 280 g ai/ha.
The mark [16] stands for this setting: MAI herbicide alone, 560 g ai/ha.

Regarding `C#CC(C)(C)NC(=O)c1cc(Cl)cc(Cl)c1` [Propyzamide], the “Obs (% visual injury)” value in assay [1] (setting [15]) is recorded as 0%; in [2] (setting [15]) it was 0%; in assay [3] (setting [15]), 0%; in assay [4] (setting [15]), 0%; in assay [5] (setting [15]) it was 0%; in assay [6] (setting [15]) it was 5%. Besides, the “Obs (% visual injury)” value in assay [7] (setting [15]) was 0%; in assay [8] (setting [15]), 0%; in [9] (setting [15]), 0%; in [10] (setting [15]) it was 0%; in assay [11] (setting [15]), 23%; in [12] (setting [15]), 3%. Further, in assay [13] (setting [15]), the “Obs (% visual injury)” value came to 18%.

In the case of `CSC(=O)c1c(C(F)F)nc(C(F)(F)F)c(C(=O)SC)c1CC(C)C` [Dithiopyr], the “Obs (% visual injury)” value in assay [1] (setting [15]) is recorded as 0%; in [2] (setting [15]) it was 10%; in assay [3] (setting [15]), 0%; in [4] (setting [15]), 0%; in assay [5] (setting [15]), 33%; in assay [6] (setting [15]) it was 40%. In addition, the “Obs (% visual injury)” value in assay [14] (setting [15]) was found to be 0%; in [7] (setting [15]) it was 0%; in [8] (setting [15]) it was 58%; in [9] (setting [15]), 0%; in assay [10] (setting [15]), 5%; in [11] (setting [15]) it was 13%. Besides, the “Obs (% visual injury)” value in assay [12] (setting [15]) is given as 30%; in [13] (setting [15]) it was 15%.

For `N#CCOC(=O)c1nc(-c2ccc3cc[nH]c3c2F)c(F)c(N)c1Cl` [Compound A, cyanomethyl 4-amino-3-chloro-5-fluoro-6-(7-fluoro-1H-indol-6-yl)pyridine-2-carboxylate], the “Obs (% visual injury)” value in [1] (Compound A alone, 7.5 g ae/ha) worked out at 10%; in assay [1] (Compound A alone, 10 g ae/ha) it was 18%; in assay [2] (Compound A alone, 7.5 g ae/ha) it was 97%; in assay [2] (Compound A alone, 10 g ae/ha) it was 93%; in assay [3] (Compound A alone, 7.5 g ae/ha), 0%; in assay [3] (Compound A alone, 10 g ae/ha), 0%. In addition, the “Obs (% visual injury)” value in assay [4] (Compound A alone, 7.5 g ae/ha) was 73%; in [4] (Compound A alone, 10 g ae/ha) it was 78%; in [5] (Compound A alone, 7.5 g ae/ha) it was 45%; in [5] (Compound A alone, 10 g ae/ha) it was 25%; in [6] (Compound A alone, 7.5 g ae/ha) it was 68%; in [6] (Compound A alone, 10 g ae/ha), 78%. The “Obs (% visual injury)” value is recorded as 75% in assay [14] (Compound A alone, 7.5 g ae/ha); 70% in [14] (Compound A alone, 10 g ae/ha); 23% in assay [7] (Compound A alone, 7.5 g ae/ha); 20% in assay [7] (Compound A alone, 10 g ae/ha); 73% in [8] (Compound A alone, 7.5 g ae/ha); 83% in assay [8] (Compound A alone, 10 g ae/ha). For the same compound, the “Obs (% visual injury)” value in assay [9] (Compound A alone, 7.5 g ae/ha) is reported as 70%; in assay [9] (Compound A alone, 10 g ae/ha), 70%; in [10] (Compound A alone, 7.5 g ae/ha), 8%; in [10] (Compound A alone, 10 g ae/ha) it was 10%; in assay [11] (Compound A alone, 7.5 g ae/ha) it was 93%; in assay [11] (Compound A alone, 10 g ae/ha), 95%. Besides, the “Obs (% visual injury)” value in assay [12] (Compound A alone, 7.5 g ae/ha) came to 3%; in assay [12] (Compound A alone, 10 g ae/ha) it was 8%; in assay [13] (Compound A alone, 7.5 g ae/ha) it was 60%; in assay [13] (Compound A alone, 10 g ae/ha), 65%.

`CCC(CC)Nc1c([N+](=O)[O-])cc(C)c(C)c1[N+](=O)[O-]` [Pendimethalin]: the “Obs (% visual injury)” value in [1] (setting [16]) came out at 0%; in assay [3] (setting [16]), 0%; in assay [4] (setting [16]), 0%; in assay [5] (setting [16]), 15%; in assay [14] (setting [16]), 0%; in assay [7] (setting [16]), 5%. Moreover, the “Obs (% visual injury)” value in assay [8] (setting [16]) was 15%; in assay [9] (setting [16]), 0%; in assay [10] (setting [16]), 0%; in assay [11] (setting [16]) it was 23%; in assay [12] (setting [16]), 3%; in assay [13] (setting [16]), 18%.
